Assay results as given in patent publication US12384787B2, “Fused heterocyclic compounds and their use as pest control agents” (PI INDUSTRIES LTD., priority 2019, dated 2025).

Tests used:
Assay type in all cases: in vivo
Spodoptera litura = Spodoptera litura diet incorporation method; conditions: third instar larvae, 96 h after release, dead and moribund combined, compared to untreated control, read-out: Percent mortality
Procedure: Diet incorporation method was used, in which the required quantity of test compounds were weighed and dissolved in surfactant solution, kept on vortex for 90 min for proper mixing, then diluted with water to the desired test concentrations. The solutions were incorporated into semi-synthetic diet when the temperature reached approximately 50° C. in the bioassay containers. The diet and solution was stirred thoroughly for properly mixing and was left to cool for 30 min. The solidified diet was cut into equal pieces, and then each piece was transferred into one cell of the bio-assay trays. A single starved third instar larva was released into each of these cells of the bioassay trays and the tray was covered with a lid. The bio-assay trays were kept under laboratory conditions at a temperature of 25° C. and relative humidity of 70%. Observations on dead, moribund and alive larvae were recorded at 96 h after the release of the larvae. Percent mortality was calculated by combining dead and moribund larvae and comparing the result to the one of the untreated control.

Plutella xylostella = Plutella xylostella leaf dip method (cabbage leaves); conditions: foliar, second instar larvae, 72 h after release, dead and moribund combined, compared to untreated control, read-out: Percent mortality
Procedure: The leaf dip method was used for testing, wherein the required quantity of the compounds were weighed and dissolved in a surfactant solution, kept on a Vortex at 2000 rpm with zirconia beads for 90 min for proper mixing and then diluted with 0.01% Triton-X solution to the desired test concentration. Cabbage leaves were dipped in the solution for 10 seconds, shade dried for 20 min and then transferred to bioassay trays. A single second instar larva was released into each bioassay tray cell and the tray was covered with a lid. The bio-assay trays were kept under laboratory conditions at a temperature of 25° C. and relative humidity of 70%. Observations on dead, moribund and living larvae were recorded at 72 h after the release. Percent mortality was calculated by combining dead and moribund larvae and comparing the result to the one of the untreated control.

Helicoverpa armigera = Helicoverpa armigera diet incorporation method; conditions: third instar larvae, 96 h after release, dead and moribund combined, compared to untreated control, read-out: Percent mortality
Procedure: Diet incorporation method was used, in which the required quantity of test compounds were weighed and dissolved in a surfactant solution, kept on vortex for 90 min for proper mixing, then was diluted with water to the desired test concentrations. The solutions were incorporated into semi-synthetic diet when the temperature reached approximately 50° C. in the bioassay containers. The diet and solution was stirred thoroughly for properly mixing and then left to cool for 30 min. The solidified diet was cut into equal pieces, and then each piece was transferred into one cell of the bio-assay trays. A single third starved instar larva was released into each of these cells of the bioassay trays and each tray was covered with a lid. The bio-assay trays were kept under laboratory conditions at a temperature of 25° C. and relative humidity of 70%. Observations on dead, moribund and alive larvae were recorded at 96 h after the release of the larvae. Percent mortality was calculated by combining dead and moribund larvae and comparing the result to the one of the untreated control.

SMILES	mortality at 300 ppm (Spodoptera litura) [%]	mortality at 300 ppm (Plutella xylostella) [%]	mortality at 300 ppm (Helicoverpa armigera) [%]
CCS(=O)(=O)c1nn2c(C)cc(C)nc2c1-c1nc2cc(S(=O)(=O)C(F)(F)F)ccc2o1 [Compound 15, 2-(2-(Ethylsulfonyl)-5,7-dimethylpyrazolo[1,5-a]pyrimidin-3-yl)-5-((trifluoromethyl)sulfonyl)benzo[d]oxazole]	> 70	> 70	> 70
CCS(=O)(=O)c1nn2c(-c3ccc(F)cc3)ccnc2c1-c1nc2cc(C(F)(F)F)ncc2n1C [Compound 21, 2-(2-(Ethylsulfonyl)-7-(4-fluorophenyl)pyrazolo[1,5-a]pyrimidin-3-yl)-3-methyl-6-(trifluoromethyl)-3H-imidazo[4,5-c]pyridine]	> 70	> 70	> 70
CCS(=O)(=O)c1nn2c(-c3ccc(F)cc3)ccnc2c1-c1nc2cc(C(F)(F)F)cnc2n1C [Compound 25, 2-(2-(Ethylsulfonyl)-7-(4-fluorophenyl)pyrazolo[1,5-a]pyrimidin-3-yl)-3-methyl-6-(trifluoromethyl)-3H-imidazo[4,5-b]pyridine]	> 70	> 70	> 70
CCS(=O)(=O)c1nn2c(-c3cc(Cl)cc(Cl)c3)ccnc2c1-c1nc2cc(C(F)(F)F)cnc2n1C [Compound 26, 2-(7-(3,5-Dichlorophenyl)-2-(ethylsulfonyl)pyrazolo[1,5-a]pyrimidin-3-yl)-3-methyl-6-(trifluoromethyl)-3H-imidazo[4,5-b]pyridine]	> 70	> 70	> 70
CCSc1nn2c(-c3ccc(OC(F)(F)F)cc3)ccnc2c1-c1nc2cc(C(F)(F)F)ncc2n1C [Compound 28, 2-(2-(Ethylthio)-7-(4-(trifluoromethoxy)phenyl)pyrazolo[1,5-a]pyrimidin-3-yl)-3-methyl-6-(trifluoromethyl)-3H-imidazo[4,5-c]pyridine]		> 70	> 70
CCS(=O)(=O)c1nn2c(-c3ccc(OC(F)(F)F)cc3)ccnc2c1-c1nc2cc(S(=O)(=O)C(F)(F)F)ccc2o1 [Compound 32, 2-(2-(Ethylsulfonyl)-7-(4-(trifluoromethoxy)phenyl)pyrazolo[1,5-a]pyrimidin-3-yl)-5-((trifluoromethyl)sulfonyl)benzo[d]oxazole]		> 70	> 70
CCS(=O)(=O)c1nn2c(-c3ccc(Cl)cc3)ccnc2c1-c1nc2cc(C(F)(F)F)ncc2n1C [Compound 37, 2-(7-(4-Chlorophenyl)-2-(ethylsulfonyl)pyrazolo[1,5-a]pyrimidin-3-yl)-3-methyl-6-(trifluoromethyl)-3H-imidazo[4,5-c]pyridine]	> 70	> 70	
CCS(=O)(=O)c1nn2c(-c3ccc(Cl)cc3)ccnc2c1-c1nc2cc(C(F)(F)F)cnc2n1C [Compound 39, 2-(7-(4-Chlorophenyl)-2-(ethylsulfonyl)pyrazolo[1,5-a]pyrimidin-3-yl)-3-methyl-6-(trifluoromethyl)-3H-imidazo[4,5-b]pyridine]		> 70	> 70
CCS(=O)(=O)c1nn2cc(-c3ccc(OC(F)(F)F)cc3)cnc2c1-c1nc2cc(C(F)(F)F)cnc2n1C [Compound 83, 2-(2-(Ethylsulfonyl)-6-(4-(trifluoromethoxy)phenyl)pyrazolo[1,5-a]pyrimidin-3-yl)-3-methyl-6-(trifluoromethyl)-3H-imidazo[4,5-b]pyridine]	> 70	> 70	> 70
CCS(=O)(=O)c1nn2c(-c3ccc(OC(F)(F)C(F)F)cc3)ccnc2c1-c1nc2cc(C(F)(F)F)ncc2n1C [Compound 91, 2-(2-(Ethylsulfonyl)-7-(4-(1,1,2,2-tetrafluoroethoxy)phenyl)pyrazolo[1,5-a]pyrimidin-3-yl)-3-methyl-6-(trifluoromethyl)-3H-imidazo[4,5-c]pyridine]		> 70	> 70
CCSc1nn2c(-c3cccc(Cl)c3)ccnc2c1-c1nc2cc(C(F)(F)F)cnc2n1C [Compound 97, 2-(7-(3-Chlorophenyl)-2-(ethylthio)pyrazolo[1,5-a]pyrimidin-3-yl)-3-methyl-6-(trifluoromethyl)-3H-imidazo[4,5-b]pyridine]			> 70
CCS(=O)(=O)c1nn2c(-c3cccc(Cl)c3)ccnc2c1-c1nc2cc(C(F)(F)F)cnc2n1C [Compound 99, 2-(7-(3-Chlorophenyl)-2-(ethylsulfonyl)pyrazolo[1,5-a]pyrimidin-3-yl)-3-methyl-6-(trifluoromethyl)-3H-imidazo[4,5-b]pyridine]		> 70	> 70
CCSc1nn2c(-c3cc(F)cc(Cl)c3)ccnc2c1-c1nc2cc(C(F)(F)F)cnc2n1C [Compound 102, 2-(7-(3-Chloro-5-fluorophenyl)-2-(ethylthio)pyrazolo[1,5-a]pyrimidin-3-yl)-3-methyl-6-(trifluoromethyl)-3H-imidazo[4,5-b]pyridine]			> 70
CCS(=O)(=O)c1nn2cc(-c3ccc(OC(F)(F)C(F)F)cc3)cnc2c1-c1nc2cc(C(F)(F)F)ncc2n1C [Compound 109, 2-(2-(Ethylsulfonyl)-6-(4-(1,1,2,2-tetrafluoroethoxy)phenyl)pyrazolo[1,5-a]pyrimidin-3-yl)-3-methyl-6-(trifluoromethyl)-3H-imidazo[4,5-c]pyridine]		> 70	> 70
CCSc1nn2c(-c3ccc(Cl)cc3Cl)ccnc2c1-c1nc2cc(C(F)(F)F)cnc2n1C [Compound 120, 2-(7-(2,4-Dichlorophenyl)-2-(ethylthio)pyrazolo[1,5-a]pyrimidin-3-yl)-3-methyl-6-(trifluoromethyl)-3H-imidazo[4,5-b]pyridine]			> 70
CCSc1nn2c(-c3cccc(C(F)(F)F)c3)ccnc2c1-c1nc2cc(C(F)(F)F)cnc2n1C [Compound 126, 2-(2-(Ethylthio)-7-(3-(trifluoromethyl)phenyl)pyrazolo[1,5-a]pyrimidin-3-yl)-3-methyl-6-(trifluoromethyl)-3H-imidazo[4,5-b]pyridine]	> 70		> 70
CCS(=O)(=O)c1nn2c(-c3cccc(C(F)(F)F)c3)ccnc2c1-c1nc2cc(C(F)(F)F)cnc2n1C [Compound 129, 2-(2-(ethylsulfonyl)-7-(3-(trifluoromethyl)phenyl)pyrazolo[1,5-a]pyrimidin-3-yl)-3-methyl-6-(trifluoromethyl)-3H-imidazo[4,5-b]pyridine]	> 70	> 70	
CCS(=O)(=O)c1nn2c(C)ccnc2c1-c1nc2cc(C(F)(F)F)cnc2n1C [Compound 133, 2-(2-(Ethylsulfonyl)-7-methylpyrazolo[1,5-a]pyrimidin-3-yl)-3-methyl-6-(trifluoromethyl)-3H-imidazo[4,5-b]pyridine]		> 70	
CCSc1nn2c(-c3cccc(C(F)(F)F)c3)ccnc2c1-c1nc2cc(C(F)(F)F)ncc2n1C [Compound 134, 2-(2-(Ethylthio)-7-(3-(trifluoromethyl)phenyl)pyrazolo[1,5-a]pyrimidin-3-yl)-3-methyl-6-(trifluoromethyl)-3H-imidazo[4,5-c]pyridine]	> 70		
CCS(=N)(=O)c1nn2c(-c3cc(Cl)cc(Cl)c3)ccnc2c1-c1nc2cc(C(F)(F)F)cnc2n1C (stereo not drawn) [Compound 135, (7-(3,5-Dichlorophenyl)-3-(3-methyl-6-(trifluoromethyl)-3H-imidazo[4,5-b]pyridin-2-yl)pyrazolo[1,5-a]pyrimidin-2-yl)(ethyl)(imino)-λ^6-sulfanone]		> 70	
CCS(=O)(=O)c1nn2c(-c3cccc(C(F)(F)F)c3)ccnc2c1-c1nc2cc(C(F)(F)F)ncc2n1C [Compound 136, 2-(2-(Ethylsulfonyl)-7-(3-(trifluoromethyl)phenyl)pyrazolo[1,5-a]pyrimidin-3-yl)-3-methyl-6-(trifluoromethyl)-3H-imidazo[4,5-c]pyridine]		> 70	> 70
CCS(=O)(=O)c1nn2c(-c3cccc(F)c3)ccnc2c1-c1nc2cc(C(F)(F)F)ncc2n1C [Compound 137, 2-(2-(Ethylsulfonyl)-7-(3-fluorophenyl)pyrazolo[1,5-a]pyrimidin-3-yl)-3-methyl-6-(trifluoromethyl)-3H-imidazo[4,5-c]pyridine]		> 70	
